Data set [1] in a line: Inhibition of recombinant HIV integrase strand transfer activity. Further details: species or system Human immunodeficiency virus.
Data set [2] is described as follows: Therapeutic index, CC50 for human 293T cells to EC50 for G-pseudotyped HIV. The data set is classed as cell-based. Conditions: read-out: Ratio CC50/EC50.
Data set [3] relates to Human immunodeficiency virus. Nature of the data set: Antiviral activity against G-pseudotyped HIV expressed in 293T cells with pGI3Luci. The data set is classed as functional, organism-based. Conditions: Human immunodeficiency virus 1, HEK-293T.

As usually defined, the IC50 is the concentration at which inhibition is half-maximal. A word on the EC50: it is the midpoint of the concentration-response curve. Read a high EC50 as a need for much substance. As to `CN1CCN(c2nc(-c3nnc(Cc4ccc(F)cc4)o3)c(O)c3ncccc23)C1=O`, the IC50 in data set [1] was found to be 0.015 µM. Besides, the selectivity ratio in data set [2] is greater than 466. This compound returned an EC50 in data set [3] of 0.03 µM.
Turning to `O=C1NCCN1c1nc(-c2nnc(Cc3ccc(F)cc3)o2)c(O)c2ncccc12`, the half-inhibitory concentration (IC50) in data set [1] came out at 0.012 µM. In addition, the selectivity ratio in data set [2] was 311. In data set [3], the EC50 stood at 0.045 µM.
On the same counts, the results for `Oc1c(-c2nnc(Cc3ccc(F)cc3)o2)nc(-c2ccc[nH]2)c2cccnc12` are 0.012 µM, 31 and 0.16 µM.
On to `Oc1c(-c2nnc(Cc3ccc(F)cc3)o2)nc(-n2cccn2)c2cccnc12`, for which the IC50 in data set [1] was found to be 0.004 µM. Moreover, in data set [2], the selectivity ratio stood at 546. The compound further gave an EC50 in data set [3] of 0.016 µM.
On the same counts, the results for `O=C(O)c1cccc(-c2nc(-c3nnc(Cc4ccc(F)cc4)o3)c(O)c3ncccc23)c1` are 0.002 µM, greater than 60 and 0.23 µM.
Turning to `NC(=O)c1ccc(-c2nc(-c3nnc(Cc4ccc(F)cc4)o3)c(O)c3ncccc23)cc1`, the IC50 in data set [1] worked out at 0.006 µM. The selectivity ratio in data set [2] worked out at 1220. Also, the EC50 in data set [3] was found to be 0.01 µM.
On the same counts, the results for `CNC(=O)c1ccc(-c2nc(-c3nnc(Cc4ccc(F)cc4)o3)c(O)c3ncccc23)cc1` are 0.004 µM, 780 and 0.012 µM.
The corresponding values for `N#Cc1ccc(-c2nc(-c3nnc(Cc4ccc(F)cc4)o3)c(O)c3ncccc23)cc1` are 0.015 µM, 72 and 0.026 µM.
The corresponding values for `O=C(c1nc(-c2nnc(Cc3ccc(F)cc3)o2)c(O)c2ncccc12)N1CCC(O)CC1` are 0.027 µM, greater than 65 and 0.22 µM.
In the case of `CN1CCN(c2nc(-c3nnc(Cc4ccc(F)cc4)o3)c(O)c3ncccc23)S1(=O)=O`, in data set [1], the IC50 turned out to be 0.004 µM. In addition, the selectivity ratio in data set [2] amounted to 137. Further, the EC50 in data set [3] came to 0.063 µM.
The corresponding values for `O=C(O)c1ccc(-c2nc(-c3nnc(Cc4ccc(F)cc4)o3)c(O)c3ncccc23)cc1` are 0.002 µM, 241 and 0.058 µM.
On the same counts, the results for `O=S1(=O)CCCCN1c1nc(-c2nnc(Cc3ccc(F)cc3)o2)c(O)c2ncccc12` are 0.002 µM, 198 and 0.013 µM.
On the same counts, the results for `Oc1c(-c2nnc(Cc3ccc(F)cc3)o2)nc(-c2ccoc2)c2cccnc12` are 0.023 µM, 116 and 0.1 µM.
Consider `CS(=O)(=O)Nc1ccc(-c2nc(-c3nnc(Cc4ccc(F)cc4)o3)c(O)c3ncccc23)cc1`, for which the IC50 in data set [1] was determined as 0.003 µM. For the same compound, in data set [2], the selectivity ratio was 915. In data set [3], this compound displayed an EC50 of 0.009 µM.
The corresponding values for `CS(=O)(=O)c1ccccc1-c1nc(-c2nnc(Cc3ccc(F)cc3)o2)c(O)c2ncccc12` are 0.011 µM, 243 and 0.023 µM.
The corresponding values for `CS(=O)(=O)c1ccc(-c2nc(-c3nnc(Cc4ccc(F)cc4)o3)c(O)c3ncccc23)cc1` are 0.009 µM, 301 and 0.008 µM.
The corresponding values for `CS(=O)(=O)Nc1nc(-c2nnc(Cc3ccc(F)cc3)o2)c(O)c2ncccc12` are 0.019 µM, 131 and 0.11 µM.
Take `CN(C)C(=O)CN1CCN(c2nc(-c3nnc(Cc4ccc(F)cc4)o3)c(O)c3ncccc23)CC1`: in data set [1], the IC50 was found to be 0.012 µM. Further, the selectivity ratio in data set [2] worked out at 205. Further, the EC50 in data set [3] was determined as 0.043 µM.
The corresponding values for `Oc1c(-c2nnc(Cc3ccc(F)cc3)o2)nc(-c2ccccc2)c2cccnc12` are 0.029 µM, 49 and 0.036 µM.
On the same counts, the results for `O=C1CCCCCN1c1nc(-c2nnc(Cc3ccc(F)cc3)o2)c(O)c2ncccc12` are 0.025 µM, greater than 411 and 0.034 µM.
On the same counts, the results for `Nc1cccc(-c2nc(-c3nnc(Cc4ccc(F)cc4)o3)c(O)c3ncccc23)c1` are 0.015 µM, 546 and 0.015 µM.
For the compound `CNS(=O)(=O)c1ccccc1-c1nc(-c2nnc(Cc3ccc(F)cc3)o2)c(O)c2ncccc12`, the concentration for half-maximal inhibition (IC50) in data set [1] was determined as 0.004 µM. Also, the selectivity ratio in data set [2] came to 173. The compound further registered an EC50 in data set [3] of 0.022 µM.
On to `O=C1OCCN1c1nc(-c2nnc(Cc3ccc(F)cc3)o2)c(O)c2ncccc12`, for which the IC50 in data set [1] came to 0.013 µM. In addition, in data set [2], the selectivity ratio was greater than 666. Besides, the half-maximal effective concentration (EC50) in data set [3] was found to be 0.021 µM.
On the same counts, the results for `O=C1NCCCN1c1nc(-c2nnc(Cc3ccc(F)cc3)o2)c(O)c2ncccc12` are 0.011 µM, greater than 250 and 0.056 µM.
Consider `Oc1c(-c2nnc(Cc3ccc(F)cc3)o2)nc(-c2ccncc2)c2cccnc12`, for which, in data set [1], the IC50 is 0.008 µM. Moreover, in data set [2], the selectivity ratio came out at 200. The compound also gave a concentration giving a half-maximal response (EC50) in data set [3] of 0.035 µM.
For the compound `CS(=O)(=O)Nc1cccc(-c2nc(-c3nnc(Cc4ccc(F)cc4)o3)c(O)c3ncccc23)c1`, the IC50 in data set [1] stood at 0.008 µM. In addition, the selectivity ratio in data set [2] was determined as 435. For the same compound, the EC50 in data set [3] amounted to 0.014 µM.
On the same counts, the results for `CC(C)NS(=O)(=O)c1ccccc1-c1nc(-c2nnc(Cc3ccc(F)cc3)o2)c(O)c2ncccc12` are 0.012 µM, 295 and 0.008 µM.
On the same counts, the results for `O=S1(=O)CCCN1c1nc(-c2nnc(Cc3ccc(F)cc3)o2)c(O)c2ncccc12` are 0.008 µM, greater than 129 and 0.11 µM.
`CS(=O)(=O)N1CCN(c2nc(-c3nnc(Cc4ccc(F)cc4)o3)c(O)c3ncccc23)CC1`: the IC50 in data set [1] worked out at 0.019 µM. In data set [2], the selectivity ratio came out at 162. This compound displayed an EC50 in data set [3] of 0.038 µM.
The corresponding values for `CC(C)NS(=O)(=O)c1ccc(-c2nc(-c3nnc(Cc4ccc(F)cc4)o3)c(O)c3ncccc23)cc1` are 0.004 µM, 118 and 0.015 µM.
Regarding `CC(=O)Nc1ccc(-c2nc(-c3nnc(Cc4ccc(F)cc4)o3)c(O)c3ncccc23)cc1`, in data set [1], the IC50 stood at 0.004 µM. The selectivity ratio in data set [2] was 591. The compound further displayed an EC50 in data set [3] of 0.006 µM.
On the same counts, the results for `Oc1c(-c2nnc(Cc3ccc(F)cc3)o2)nc(-c2cnccn2)c2cccnc12` are 0.02 µM, 24 and 0.17 µM.
With `CN(C)C(=O)c1ccc(-c2nc(-c3nnc(Cc4ccc(F)cc4)o3)c(O)c3ncccc23)cc1`, in data set [1], the IC50 is 0.018 µM. The selectivity ratio in data set [2] amounted to 668. In data set [3], the EC50 came to 0.012 µM.
The corresponding values for `Cc1ccn(-c2nc(-c3nnc(Cc4ccc(F)cc4)o3)c(O)c3ncccc23)n1` are 0.021 µM, 23 and 0.38 µM.
On the same counts, the results for `CN(C)S(=O)(=O)c1ccc(-c2nc(-c3nnc(Cc4ccc(F)cc4)o3)c(O)c3ncccc23)cc1` are 0.018 µM, 218 and 0.009 µM.
For the compound `COCCNC(=O)c1nc(-c2nnc(Cc3ccc(F)cc3)o2)c(O)c2ncccc12`, the half-maximal inhibitory concentration (IC50) in data set [1] came to 0.19 µM. Also, the selectivity ratio in data set [2] came to 139.
Consider `O=C1CN(c2nc(-c3nnc(Cc4ccc(F)cc4)o3)c(O)c3ncccc23)CCN1`, for which the IC50 in data set [1] was 0.007 µM. In addition, the selectivity ratio in data set [2] was 844. The midpoint of the response in data set [3], the EC50, lay at 0.017 µM.
On the same counts, the results for `O=C1N(CCO)CCN1c1nc(-c2nnc(Cc3ccc(F)cc3)o2)c(O)c2ncccc12` are 0.013 µM, 148 and 0.094 µM.
On the same counts, the results for `CC(=O)N(C)c1nc(-c2nnc(Cc3ccc(F)cc3)o2)c(O)c2ncccc12` are 0.028 µM, 428 and 0.18 µM.
On the same counts, the results for `CN(C)C(=O)N1CCN(c2nc(-c3nnc(Cc4ccc(F)cc4)o3)c(O)c3ncccc23)C(=O)C1` are 0.023 µM, 120 and 0.087 µM.
Turning to `O=C1CN(C(=O)c2nc(-c3nnc(Cc4ccc(F)cc4)o3)c(O)c3ncccc23)CCN1`, the half-inhibitory concentration (IC50) in data set [1] was 0.074 µM. This compound also registered an EC50 in data set [3] greater than 14 µM.
Regarding `CN1CCCN(c2nc(-c3nnc(Cc4ccc(F)cc4)o3)c(O)c3ncccc23)S1(=O)=O`, in data set [1], the IC50 worked out at 0.006 µM. The selectivity ratio in data set [2] worked out at 294. This compound also displayed a concentration giving a half-maximal response (EC50) in data set [3] of 0.031 µM.
On the same counts, the results for `Oc1c(-c2nnc(Cc3ccc(F)cc3)o2)nc(-c2cccnc2)c2cccnc12` are 0.011 µM, 194 and 0.036 µM.
The corresponding values for `CN(C)S(=O)(=O)Nc1nc(-c2nnc(Cc3ccc(F)cc3)o2)c(O)c2ncccc12` are 0.015 µM, 127 and 0.084 µM.
As for `CN(C)S(=O)(=O)c1ccccc1-c1nc(-c2nnc(Cc3ccc(F)cc3)o2)c(O)c2ncccc12`, the IC50 in data set [1] was 0.004 µM. Also, the selectivity ratio in data set [2] stood at 67. Also, in data set [3], the EC50 was determined as 0.029 µM.
With `N#Cc1nc(-c2nnc(Cc3ccc(F)cc3)o2)c(O)c2ncccc12`, the IC50 in data set [1] came out at 0.24 µM. In data set [3], the EC50 is greater than 35 µM.
Turning to `CC(C)NC(=O)c1cccc(-c2nc(-c3nnc(Cc4ccc(F)cc4)o3)c(O)c3ncccc23)c1`, the IC50 in data set [1] was found to be 0.01 µM. Also, in data set [2], the selectivity ratio worked out at 182. The compound further showed an EC50 in data set [3] of 0.028 µM.
The corresponding values for `CS(=O)(=O)c1cccc(-c2nc(-c3nnc(Cc4ccc(F)cc4)o3)c(O)c3ncccc23)c1` are 0.006 µM, 234 and 0.013 µM.
The corresponding values for `O=C1CCCN1c1nc(-c2nnc(Cc3ccc(F)cc3)o2)c(O)c2ncccc12` are 0.019 µM, greater than 156 and 0.089 µM.
The corresponding values for `CC(C)NC(=O)c1ccc(-c2nc(-c3nnc(Cc4ccc(F)cc4)o3)c(O)c3ncccc23)cc1` are 0.004 µM, 95 and 0.013 µM.

(Values after ChEMBL document CHEMBL1153288, “1,3,4-Oxadiazole substituted naphthyridines as HIV-1 integrase inhibitors. Part 2: SAR of the C5 position” (Bioorg Med Chem Lett, 2009).)
